The nature of experiment [1]: Luminescence Cell-Based Dose Response HTS to Identify Inhibitors of 5'UTR Stem-Loop Driven Prion Protein mRNA Translation in H4 Neuroglioblastoma Cells. [Related pubchem assays: 1827 (Project Summary), 1813 (Primary HTS)]. The format is functional.
The nature of experiment [2]: alpha-synuclein stem-loop luciferase translation blockers – H4 neuroglioma cells, luminescence, confirmation (AID 1988). The class given is functional, cell-based.
In experiment [3] the test system is HEK293. The experiment in a line: EBV LMP1 TES2 canonical NF-kB signalling blockers – cell-based, HEK293, luciferase, cherry-pick, dose response (AID 588343). The format is functional, Homo sapiens.
In experiment [4] the target is T1, Latent membrane protein 1 (Human herpesvirus 4 (strain B95-8), UniProt P03230).
T1 sequence (P03230 whole entry): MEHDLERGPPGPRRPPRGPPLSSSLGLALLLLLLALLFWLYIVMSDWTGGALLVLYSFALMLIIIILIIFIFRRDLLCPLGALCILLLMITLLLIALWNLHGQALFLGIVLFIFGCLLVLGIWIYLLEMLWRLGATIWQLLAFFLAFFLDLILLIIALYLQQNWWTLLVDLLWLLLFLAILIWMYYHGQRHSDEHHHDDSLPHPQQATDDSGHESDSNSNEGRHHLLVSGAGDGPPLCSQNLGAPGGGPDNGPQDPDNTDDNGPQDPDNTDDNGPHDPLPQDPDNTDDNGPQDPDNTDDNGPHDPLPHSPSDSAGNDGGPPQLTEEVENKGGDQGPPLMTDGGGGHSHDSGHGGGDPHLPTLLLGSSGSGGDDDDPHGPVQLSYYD
Kind of experiment: LMP1 TES1 pathway selectivity over dsRED control – imaging, HEK293T, dual-color eGFP/dsRED, cherry-picks, selectivity assay for LMP1 NF-kB inhibitor project, dose response (AID 588398). The class given is functional, cell-based.

Experiment [5] addresses T2, Caspase-3 (Homo sapiens, UniProt P42574).
T2 sequence (P42574 whole entry): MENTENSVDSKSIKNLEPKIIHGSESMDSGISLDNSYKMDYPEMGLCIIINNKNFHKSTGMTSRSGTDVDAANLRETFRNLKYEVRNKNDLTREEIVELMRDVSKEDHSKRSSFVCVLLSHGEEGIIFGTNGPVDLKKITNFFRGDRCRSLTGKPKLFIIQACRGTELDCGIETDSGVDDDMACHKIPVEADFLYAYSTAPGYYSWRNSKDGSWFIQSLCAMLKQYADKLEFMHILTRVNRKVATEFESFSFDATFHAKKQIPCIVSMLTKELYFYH
The format is functional.

Experiment [6] has as its target T3, Sentrin-specific protease 7 (Homo sapiens, UniProt Q9BQF6).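 Further: Luminescence-based dose-response confirmation of ultra-high-throughput screening hits, measuring inhibition of SENP7.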
T3 sequence (Q9BQF6 whole entry): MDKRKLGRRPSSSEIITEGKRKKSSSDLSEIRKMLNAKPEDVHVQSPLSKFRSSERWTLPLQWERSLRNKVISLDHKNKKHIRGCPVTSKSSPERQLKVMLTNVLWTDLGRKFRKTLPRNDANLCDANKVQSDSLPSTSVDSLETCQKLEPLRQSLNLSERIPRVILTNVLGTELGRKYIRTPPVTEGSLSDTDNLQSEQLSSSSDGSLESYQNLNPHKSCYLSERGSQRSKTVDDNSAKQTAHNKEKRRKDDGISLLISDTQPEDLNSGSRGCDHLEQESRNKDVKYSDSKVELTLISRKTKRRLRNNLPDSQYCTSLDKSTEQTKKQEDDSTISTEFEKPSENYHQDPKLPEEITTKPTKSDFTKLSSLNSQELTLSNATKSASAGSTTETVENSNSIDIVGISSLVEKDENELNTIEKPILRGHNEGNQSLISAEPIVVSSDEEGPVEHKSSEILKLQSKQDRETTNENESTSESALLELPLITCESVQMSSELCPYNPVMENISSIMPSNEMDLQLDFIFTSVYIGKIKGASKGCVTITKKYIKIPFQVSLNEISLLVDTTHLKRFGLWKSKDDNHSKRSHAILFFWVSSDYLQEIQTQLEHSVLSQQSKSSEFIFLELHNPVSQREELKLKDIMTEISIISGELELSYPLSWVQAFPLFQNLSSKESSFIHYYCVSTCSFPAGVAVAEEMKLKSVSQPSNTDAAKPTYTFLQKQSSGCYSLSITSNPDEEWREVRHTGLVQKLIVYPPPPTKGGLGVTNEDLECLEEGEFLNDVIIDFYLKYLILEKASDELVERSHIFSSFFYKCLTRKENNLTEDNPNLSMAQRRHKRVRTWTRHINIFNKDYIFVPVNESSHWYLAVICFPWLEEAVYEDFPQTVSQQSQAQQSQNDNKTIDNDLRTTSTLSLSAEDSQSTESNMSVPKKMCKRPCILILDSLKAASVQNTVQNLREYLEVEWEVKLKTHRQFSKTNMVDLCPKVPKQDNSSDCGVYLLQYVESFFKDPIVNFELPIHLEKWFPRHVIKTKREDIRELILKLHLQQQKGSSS
The class given is functional.

In experiment [7] the target is T4, Sentrin-specific protease 6 (Homo sapiens, UniProt Q9GZR1).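 Further: Luminescence-based dose-response confirmatory assay of SENP6 inhibition, following up an ultra-high-throughput screen.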
T4 sequence (Q9GZR1 whole entry): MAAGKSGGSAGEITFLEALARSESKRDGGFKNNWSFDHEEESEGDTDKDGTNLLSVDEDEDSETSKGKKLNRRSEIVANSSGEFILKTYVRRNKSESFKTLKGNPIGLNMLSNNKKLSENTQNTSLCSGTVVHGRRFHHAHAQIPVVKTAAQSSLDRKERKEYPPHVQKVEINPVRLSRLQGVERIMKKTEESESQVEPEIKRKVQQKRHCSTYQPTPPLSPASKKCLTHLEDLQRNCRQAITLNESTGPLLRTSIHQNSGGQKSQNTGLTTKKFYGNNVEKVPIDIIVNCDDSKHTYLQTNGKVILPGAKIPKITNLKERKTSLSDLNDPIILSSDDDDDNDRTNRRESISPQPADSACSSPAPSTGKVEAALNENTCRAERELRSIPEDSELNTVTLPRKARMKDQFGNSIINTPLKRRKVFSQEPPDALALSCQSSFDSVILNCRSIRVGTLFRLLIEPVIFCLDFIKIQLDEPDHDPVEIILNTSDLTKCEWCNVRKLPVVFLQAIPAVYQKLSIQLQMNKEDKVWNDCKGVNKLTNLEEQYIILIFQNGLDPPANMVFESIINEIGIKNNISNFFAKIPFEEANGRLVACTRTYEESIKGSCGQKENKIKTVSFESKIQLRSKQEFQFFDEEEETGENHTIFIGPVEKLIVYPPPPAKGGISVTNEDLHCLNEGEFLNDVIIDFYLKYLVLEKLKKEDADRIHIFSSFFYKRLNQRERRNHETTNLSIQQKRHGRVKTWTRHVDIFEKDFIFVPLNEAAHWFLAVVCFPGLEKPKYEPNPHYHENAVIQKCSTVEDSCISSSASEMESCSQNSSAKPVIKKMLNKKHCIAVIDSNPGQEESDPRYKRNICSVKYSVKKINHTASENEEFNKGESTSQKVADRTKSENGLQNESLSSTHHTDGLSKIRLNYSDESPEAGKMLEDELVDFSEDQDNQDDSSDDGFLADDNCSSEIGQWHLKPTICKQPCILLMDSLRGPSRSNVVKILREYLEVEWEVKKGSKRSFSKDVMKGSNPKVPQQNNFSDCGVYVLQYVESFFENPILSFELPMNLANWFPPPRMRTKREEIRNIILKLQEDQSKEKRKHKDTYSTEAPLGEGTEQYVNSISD
The format is functional.

For experiment [8], the target named is T5, Sentrin-specific protease 8 (Homo sapiens, UniProt Q96LD8).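 Further: luminescence read-out of SENP8 inhibition, dose-response confirmation following an ultra-high-throughput screen.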
T5 sequence (Q96LD8 whole entry): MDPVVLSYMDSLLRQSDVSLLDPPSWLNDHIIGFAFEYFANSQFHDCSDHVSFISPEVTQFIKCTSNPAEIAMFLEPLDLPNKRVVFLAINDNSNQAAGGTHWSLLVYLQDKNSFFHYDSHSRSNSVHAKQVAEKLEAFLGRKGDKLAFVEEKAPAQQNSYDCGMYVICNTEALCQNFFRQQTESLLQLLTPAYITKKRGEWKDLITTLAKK
The format is functional.

Experiment [9] has as its target Phospholipase A2 (Homo sapiens, UniProt P04054). The format is functional.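 Further: confirmatory dose-response counterscreen on phospholipase A2, testing hits that came from an ultra-high-throughput screen for ATG4B inhibitors.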
A short description of experiment [10]: luciferase reporter signal suppression in cells – H4 neuroglioma cells, luminescence, dose response (AID 1990). The format is functional, cell-based. (In general: A reporter such as luciferase makes a cellular process visible.)
The target in experiment [11] is T6, Aminopeptidase N (Plasmodium falciparum FcB1/Columbia, UniProt O96935).
T6 sequence (O96935 whole entry): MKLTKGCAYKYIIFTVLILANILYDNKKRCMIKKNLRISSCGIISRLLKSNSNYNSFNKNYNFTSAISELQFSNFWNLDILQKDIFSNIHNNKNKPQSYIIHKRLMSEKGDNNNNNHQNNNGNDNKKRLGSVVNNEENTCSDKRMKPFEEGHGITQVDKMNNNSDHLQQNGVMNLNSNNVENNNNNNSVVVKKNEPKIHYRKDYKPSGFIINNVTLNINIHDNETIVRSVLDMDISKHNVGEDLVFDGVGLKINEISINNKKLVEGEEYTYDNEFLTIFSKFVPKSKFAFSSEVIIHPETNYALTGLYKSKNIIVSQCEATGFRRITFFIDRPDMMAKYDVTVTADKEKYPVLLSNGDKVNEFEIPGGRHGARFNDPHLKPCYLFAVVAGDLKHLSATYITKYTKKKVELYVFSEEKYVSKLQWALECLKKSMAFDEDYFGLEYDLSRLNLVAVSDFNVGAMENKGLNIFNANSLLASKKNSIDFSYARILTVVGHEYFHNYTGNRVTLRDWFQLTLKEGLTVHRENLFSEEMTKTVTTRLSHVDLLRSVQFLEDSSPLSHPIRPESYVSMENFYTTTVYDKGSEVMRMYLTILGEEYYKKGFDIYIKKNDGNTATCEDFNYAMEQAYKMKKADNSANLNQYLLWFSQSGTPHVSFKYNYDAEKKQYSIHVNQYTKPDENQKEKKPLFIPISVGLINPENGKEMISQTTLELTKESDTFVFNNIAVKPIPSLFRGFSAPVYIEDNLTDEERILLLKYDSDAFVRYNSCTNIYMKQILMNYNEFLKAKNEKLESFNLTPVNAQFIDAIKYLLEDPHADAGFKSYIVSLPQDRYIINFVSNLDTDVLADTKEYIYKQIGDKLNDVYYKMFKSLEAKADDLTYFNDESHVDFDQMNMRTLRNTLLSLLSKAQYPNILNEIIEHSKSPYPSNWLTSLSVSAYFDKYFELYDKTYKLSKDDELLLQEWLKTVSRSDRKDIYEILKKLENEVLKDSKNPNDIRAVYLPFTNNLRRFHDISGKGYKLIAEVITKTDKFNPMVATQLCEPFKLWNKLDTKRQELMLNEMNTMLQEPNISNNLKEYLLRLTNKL
The experiment in a line: malaria alanyl aminopeptidase activity blockers – biochemical, fluorogenic H-Leu-NHMec substrate, 1536-well (AID 1445). More on the design: species or system Plasmodium falciparum 3D7, 3D7.

For experiment [12], the target named is T7, Mitochondrial peptide methionine sulfoxide reductase (Bos taurus, UniProt P54149).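 Further: absorbance read-out, biochemical high-throughput dose-response screen for MsrA inhibitors, confirmatory; recombinant bovine MsrA coupled to E. coli TrxB with NADPH and selenocystamine; potency is for inhibitors of MsrA activity on DMSO substrate.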
T7 sequence (P54149 whole entry): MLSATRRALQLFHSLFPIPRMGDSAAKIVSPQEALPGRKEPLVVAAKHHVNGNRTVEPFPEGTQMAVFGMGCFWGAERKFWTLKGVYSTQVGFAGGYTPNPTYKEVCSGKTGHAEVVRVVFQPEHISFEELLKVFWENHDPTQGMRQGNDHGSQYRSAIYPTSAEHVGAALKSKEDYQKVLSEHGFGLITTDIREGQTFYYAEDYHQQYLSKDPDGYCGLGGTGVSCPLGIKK
The class given is functional.

Experiment [13] deals with T8, Interleukin-8 (Homo sapiens, UniProt P10145).
T8 sequence (P10145 whole entry): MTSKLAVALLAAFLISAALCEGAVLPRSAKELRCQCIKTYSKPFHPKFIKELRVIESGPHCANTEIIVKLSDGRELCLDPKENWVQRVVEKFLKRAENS
Kind of experiment: Dose Response confirmation of uHTS small molecule hits for cystic fibrosis induced NFkb Inhibitors in a TNFa-induced IL8 counterscreen. The class given is functional. The following applies: read-out: IC50_Mean.

Experiment [14] has as its target T8, Interleukin-8. Kind of experiment: Dose Response confirmation of uHTS small molecule hits for cystic fibrosis induced NFkb Inhibitors in a PAF-induced IL8 counterscreen. The format is functional. The following applies: read-out: IC50_Mean. Background: Counterscreens check selectivity or assay interference.

Activity calls are given as the source filed them. Some results are limits rather than exact numbers.

Chain of Phospholipase A2 (P04054 whole entry): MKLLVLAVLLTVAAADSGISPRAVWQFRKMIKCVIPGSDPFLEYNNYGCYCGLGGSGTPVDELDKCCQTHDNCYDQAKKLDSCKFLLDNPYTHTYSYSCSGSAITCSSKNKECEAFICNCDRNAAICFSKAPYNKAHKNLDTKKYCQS

For orientation: EC50 means the midpoint of the concentration-response curve. For orientation: AC50 means the midpoint of the concentration-response curve, whichever way the signal moves. As to `c1ccc(-c2cn3c4c(sc3n2)CCCC4)cc1`, the EC50 was 6.75 µM (active) in [1] and 6.38 µM (active) in [2]. Besides, the results for the AC50 in experiment [3] (hek293) and in experiment [4] were 2.07 µM (active) and 47.1 µM (active), respectively.
As for `Cc1ccccc1-c1nc2cc(Cl)ccc2o1`, the IC50 in experiment [5] is 12.9 µM (active); in [6], 4.69 µM (active); in [7], 13.7 µM (active); in experiment [8], 79.7 µM (active).
As for `CC(C)(C)C(=O)CSc1ncnc2sc3c(c12)CCC3`, the IC50 in [9] is 2.59 µM (active).
Consider `N#CC1=C(N)N2C(=C(C#N)C1c1cccc(Br)c1)Nc1ccccc12` (stereo not given), for which the EC50 in experiment [10] is 11.3 µM (active); in experiment [1], 14.6 µM (active); in experiment [2], 12.9 µM (active). In addition, the concentration at half-maximal activity (AC50) was 3.62 µM (active) in experiment [3] (Homo sapiens, HEK293) and 54 µM (active) in experiment [4].
For the molecule `O=Cc1cc(OCc2ccccc2)ccc1[B-](F)(F)F`, the AC50 in experiment [3] (Homo sapiens, HEK293) was 2.86 µM (active); in [4] it was 1.14 µM (active).
Turning to `COCc1cc(C)n(CC(=O)N/N=C/c2ccc(-c3ccc(Cl)c(C(=O)O)c3)o2)c(=O)c1C#N`, the IC50 was 24.7 µM (active) in [11] and 99.4 µM (inactive) in experiment [12].
For the molecule `CC(C)C(=O)Nc1ccc2nn(-c3ccccc3)nc2c1`, the IC50 in experiment [5] was 26.7 µM (active); in [6], 8.73 µM (active); in [7], > 100 µM (inactive); in [8], > 100 µM (inactive).
On to `O=C1C=C(NC2=CC3OC(c4ccccc4)OCC3OC2=O)CCC1` (stereo not given), for which the IC50 in experiment [13] was 1.07 µM (active); in experiment [14] it was 1.5 µM (active).
For the molecule `CCOP(=O)(Nc1ccc2c(c1)C(=NNC(N)=S)c1ccccc1-2)OCC`, the IC50 in [12] is 95.9 µM (inactive).
